Structures are written as SMILES. “Also recorded” adds a separate entry of the source.

These results are taken from patent US20100004222A1, “Amide Derivatives as Ion-Channel Ligands and Pharmaceutical Compositions and Methods of Using the Same” (Renovis, Inc., priority 2006, published 2010).

Series [1] has as its system Dorsal root ganglion (DRG) neurons. The experiment in a line: Whole-cell patch clamp electrophysiology. The class given is cell-based. To be noted: Rattus norvegicus, DRG neuron, read-out: % inhibition of capsaicin induced current. The protocol:
Dorsal root ganglion (DRG) neurons were recovered from either neonatal or adult rats and plated onto poly-D-lysine coated glass coverslips. The plated neurons were transferred into a chamber to allow drug solutions to be added to the cells using a computer-controlled solenoid-valve based perfusion system. The cells were imaged using standard DIC optics. Cells were patched using finely-pulled glass electrodes. Voltage-clamp electrophysiology experiments were carried out using an Axon Instruments Multiclamp amplified controlled by pCLAMP8 software.
In general terms: In patch-clamp work, channel activity is measured electrically.

The next series concerns VR1 receptor. The experiment in a line: Calcium imaging assay in DRG neurons (capsaicin). The class given is cell-based. Particulars: 3 nM, FIG. 1. The procedure:
Therefore the functional activity of compounds at the VR1 receptor may be determined by measuring changes in intracellular calcium levels in neurons such as the dorsal root ganglion. […] Prior to assay, cells were loaded with 5 μg/ml Fura2 in normal saline solution at 37° C. for 40 minutes. Cells were then washed with normal saline to remove dye before commencement of the experiment. The plated neurons were transferred into a chamber on the stage of a Nikon eclipse TE300 microscope after which neurons were allowed to attain a stable fluorescence for about 10 minutes before beginning the experiment. The assay consists of two stages, a pretreatment phase followed by a treatment phase. First, a solution of the test compound was added from a multivalve perfusion system to the cells for 1 minute (pretreatment). […] Fura2 was excited at […] to indicate relative calcium ion concentration. Changes in wavelength measurements were made throughout the course of the experiment. The fluorescence ratio was calculated by dividing fluorescence measured at 340 nm by that at 380 nM. Data were collected using Intelligent Imaging's Slidebook software.

The nature of series [2]: Pharmacokinetic evaluation following intravenous and oral administration in rats. Particulars: male, Sprague-Dawley, plasma; rat; non-compartmental analysis; read-out: In vivo Clearance (converted). Format: in vivo. The procedure: Male Sprague-Dawley rats are acclimatized for at least 24 hours prior to experiment initiation. During acclimation period, all animals receive food and water ad libitum. However, food but not water is removed from the animal's cages at least 12 hours before initiation of the experiment. During the first 3 hours of experimentation, the animals receive only water ad libitum. At least three animal each are tested for intravenous and oral dosage. For intravenous formulation, compounds were dissolved (0.25 to 1 mg/mL) in a mixture of 3% dimethyl sulfoxide, 40% PEG 400 and the rest percentage of 40% Captisol in water (w/v). For oral formulation, compounds of this invention are dissolved (2 mg/mL) in a mixture of 5% of 10% Tween 80 in water (v/v) and 95% of 0.5% methyl cellulose in water (w/v). The animals are weighed before dosing. The determined body weight is used to calculate the dose volume for each animal.
Dose volume(mL/kg)=1 mg/kg/formulation concentration(mg/mL)
In instances where the formulation concentrations were less than 0.5 mg/mL, the dosing volume is about 2 mL/kg. PO rats are typically dosed through oral gavage at 2.5 mL/kg to achieve a dose level of 5 mg/kg. For IV dosing, blood samples are collected (using a pre-heparinized syringe) via the jugular vein catheter at 2, 5, 15, 30, 60, 120, 180, 300, 480, and 1440 minutes post dosing. For PO dosing, blood samples are collected (using a pre-heparinized syringe) via the jugular vein catheter before dosing and at 5, 15, 30, 60, 120, 180, 300, 480, and 1440 minutes post dosing. About 250 uL of blood is obtained at each time point from the animal. Equal volumes of 0.9% normal saline are replaced to prevent dehydration. The whole blood samples are maintained on ice until centrifugation. Blood samples are then centrifuged at 14,000 rpm for 10 minutes at 4° C. and the upper plasma layer transferred into a clean vial and stored at −80° C. The resulting plasma samples are then analyzed by liquid chromatography-tandem mass spectrometry. Following the measurement of plasma samples and dosing solutions, plasma concentration-time curve is plotted. Plasma exposure is calculated as the area under the concentration-time curve extrapolated to time infinite (AUCinf). The AUCinf is averaged and the oral bioavailability (% F) for individual animal is calculated as:
AUCinf (PO)/AUCinf (IV), normalized to their respective dose levels. The % F is reported as the mean % F of all animals dosed orally with the compound of the invention at the specified level (Table 6).
In vivo clearance in the rat was calculated by conducting a non-compartmental analysis of the pharmacokinetic profile using WinNonlin software.

Take `COc1cc(NC(=O)c2ccc(/C=C/C(C)C)cc2)cc(C(F)(F)F)c1` [Compound 240]: in series [1], the inhibition (in general, how much of the control response was suppressed) at 0.1 µM worked out at 50%.

Take `Cc1cc(/C=C/C(F)(F)F)ccc1C(=O)Nc1ccc2sc(CO)nc2c1` [Compound 225]: in the series with VR1 receptor, the “inhibition of the Capsaicin induced intracellular calcium response” value is reported as “reduced; also recorded: significant inhibition”. Also, the clearance in series [2] was 1.52 mL/min/kg.
